Test results from patent publication US20040137426A1, “Gp41 peptides and methods based thereon for inhibiting HIV fusion to target cells” (priority 2002, published 2004).
In brackets after ≈: the same amount, converted by molar mass.

Experiments:
[1] = tested on: BR94; experiment: Primary isolate infectivity in PBMCs: patient isolate BR94 (clade B); type: cell-based, HIV-1
[2] = tested on: SF162; experiment: Primary isolate infectivity in peripheral blood lymphocytes, p24 ELISA: SF162; type: cell-based, HIV-1
Experimental: (§1) Infectivity studies were performed using the inhibition of HIV-1 infection of the gp41 derived peptides using receptor bearing cells for both HIV-1 T cell line adapted virus (HIV-1 IIIB) in MT2 cells and primary isolate virus (SF162, JRCSF and 89.6) in peripheral blood lymphocytes. Both involved the culture of the virus with the peptide or its scrambled form for 1 hr at 37° C., 5% CO2 and then subsequent addition of target cells for 7 days. Inhibition was assessed using an enzyme-linked immunosorbent assay (ELISA) of viral core protein p24 antigen.

[3] = tested on: HIV-1; conditions: qualitative comparison
Experimental: Peptides were tested in vitro for inhibition of early steps in cell-free HIV-1 infection and direct cell-to-cell spread of virus using T-cell line-adapted and primary isolates and recombinant HIV-1 viruses pseudotyped for env using CCR5, CXCR4 or both coreceptors.
Selected de novo designed peptides according to the invention (S291, N36E, W37Q and W371) and the new analogues of T20, T21 and DP219 were evaluated for inhibition of both cell-free HIV-1 infection and of direct cell-to-cell spread using a range of T-cell line-adapted and primary isolates and recombinant HIV-1 pseudotyped for env derived from patient isolates of different clades.

[4] = tested on: 89.6; experiment: Primary isolate infectivity in peripheral blood lymphocytes, p24 ELISA: 89.6; type: cell-based, HIV-1; conditions: primary isolate 89.6
Experimental: as §1

[5] = tested on: JRCSF; experiment: Primary isolate infectivity in peripheral blood lymphocytes, p24 ELISA: JRCSF; type: cell-based, HIV-1
Experimental: as §1

[6] = tested on: HIV-1 IIIB; type: cell-based; conditions: lab-adapted HIV-1 IIIB
Experimental: Both involved the culture of the virus with the peptide or its scrambled form for 1 hr at 37° C., 5% CO2 and then subsequent addition of target cells for 7 days. Inhibition was assessed using an enzyme-linked immunosorbent assay (ELISA) of viral core protein p24 antigen.

CC[C@H](C)[C@H](NC(=O)[C@H](CC(C)C)NC(=O)[C@H](CO)NC(=O)[C@H](Cc1ccc(O)cc1)NC(=O)[C@@H](NC(=O)[C@H](CC(C)C)NC(=O)[C@H](CO)NC(=O)[C@@H](NC(=O)[C@H](Cc1ccc(O)cc1)NC(=O)[C@H](CC(N)=O)NC(=O)[C@H](CC(=O)O)NC(=O)[C@@H](NC(=O)[C@H](CCC(=O)O)NC(=O)[C@H](CCCNC(=N)N)NC(=O)[C@H](CCC(=O)O)NC(=O)[C@H](Cc1c[nH]c2ccccc12)NC(=O)[C@H](CCC(=O)O)NC(=O)[C@H](CCSC)NC(=O)[C@H](Cc1c[nH]c2ccccc12)NC(=O)[C@@H](NC(=O)[C@H](CCSC)NC(=O)[C@H](CC(N)=O)NC(=O)[C@H](CC(N)=O)NC(=O)[C@H](Cc1c[nH]c2ccccc12)NC(=O)[C@@H](NC(=O)[C@H](CCC(N)=O)NC(=O)[C@H](CCC(=O)O)NC(=O)[C@H](CC(C)C)NC(=O)[C@@H](N)CO)[C@@H](C)CC)[C@@H](C)O)[C@@H](C)CC)[C@@H](C)O)[C@@H](C)CC)C(=O)O [Peptide S29I]
Primary isolate (ID50) BR94 [1]: 0 µg/mL
Primary isolate (ID50) SF162 [2]: 0.06 µg/mL
activity compared with the new analogues of T-20, T-21 and DP219 [3]: broadly similar levels of activity
Primary isolate (ID50) 89.6 [4]: 50 µg/mL
Primary isolate (ID50) JRCSF [5]: >50 µg/mL
ID50% HIV-1IIIB infectivity [6]: 9.37 µg/mL (≈ 2.55 µM)
ID90 HIV-1IIIB infectivity [6]: 25 µg/mL (≈ 6.8 µM)
MIC HIV-1IIIB infectivity [6]: 6.3 µg/mL (≈ 1.71 µM)
